Measured values published in patent US8030282B2, “Motilide polymorphs” (priority 2006, dated 2011).
Converted amounts (≈) assume the structure as drawn.

What was measured:
[1] = Aqueous solubility of polymorphs of Compound Ia; format: physicochemical
[2] = Storage stability at 40° C. and 75% RH (XRPD); format: physicochemical; settings: for change on storage at 40° C. and 75% RH: one week
[3] = Form stability under aqueous conditions / during solubility analysis; format: physicochemical
[4] = Gravimetric vapor sorption (GVS) moisture sorption isotherm; format: physicochemical; settings: for mass gain/loss upon multiple sorption and desorption cycles / weight increase / mass uptake between 0 and 90% RH: GVS, 25° C.; for XRPD re-analysis under ambient conditions after GVS: after GVS weight uptake/loss; for weight increase / mass uptake between 0 and 90% RH: 0 to 90% RH
Method: GVS data was also collected by Pharmorphix, Ltd. All samples were run on a Hiden IGASorp moisture sorption analyzer running CFRSorp software. Sample sizes were typically 10 mg. A moisture adsorption-desorption isotherm was performed as outlined below, with two scans giving one complete cycle. All samples were loaded and unloaded at typical ambient (room) humidity and temperature (40% RH, 25° C.). All samples were analyzed by XRPD after GVS analysis. The standard isotherm was performed at 25° C. at 10% RH intervals over a 0 to 90% RH range. [table]

[5] = Retention of crystallinity on heating or vacuum drying (XRPD); format: physicochemical
From the text: XRPD patterns were collected on a Bruker AXS C2 GADDS diffractometer using Cu Kα radiation (40 kV, 40 mA), automated XYZ stage, laser video microscope for auto-sample positioning and a HiStar 2-dimensional area detector. X-ray optics consisted of a single Göbel multilayer mirror coupled with a pinhole collimator of 0.3 mm.
The beam divergence, i.e. the effective size of the X-ray beam on the sample, was approximately 4 mm. A θ-θ continuous scan mode was employed with a sample-detector distance of 20 cm which gave an effective 2θ range of 3.2° to 29.7°. Typically the sample would be exposed to the X-ray beam for 120 seconds.

[6] = target: motilin receptor (Homo sapiens, UniProt O43193); settings: cited from earlier work
Chain of motilin receptor (O43193 whole entry, species assumed): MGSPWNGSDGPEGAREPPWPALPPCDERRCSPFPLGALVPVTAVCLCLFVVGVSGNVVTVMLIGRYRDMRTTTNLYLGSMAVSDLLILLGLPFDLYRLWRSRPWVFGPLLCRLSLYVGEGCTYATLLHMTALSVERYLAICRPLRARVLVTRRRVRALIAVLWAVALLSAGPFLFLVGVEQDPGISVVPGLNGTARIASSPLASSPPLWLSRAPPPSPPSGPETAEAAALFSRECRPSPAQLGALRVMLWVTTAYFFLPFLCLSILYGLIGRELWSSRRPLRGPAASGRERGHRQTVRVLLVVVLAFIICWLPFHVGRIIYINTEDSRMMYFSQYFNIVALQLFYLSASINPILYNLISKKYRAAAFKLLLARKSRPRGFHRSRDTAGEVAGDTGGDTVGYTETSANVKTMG

SMILES | mass gain/loss upon multiple sorption and desorption cycles [4] | XRPD re-analysis under ambient conditions after GVS [4] | weight increase / mass uptake between 0 and 90% RH [4] | polymorph change under aqueous conditions / during solubility analysis [3] | other results
CC[C@H]1OC(=O)[C@H](C)[C@@H](O[C@H]2C[C@@](C)(OC)[C@@H](O)[C@H](C)O2)[C@H](C)[C@@H](O[C@@H]2O[C@H](C)C[C@H](N(C)C(C)C)[C@H]2O)[C@](C)(O)C[C@@H](C)[C@H](OCC(=O)NC)[C@H](C)[C@@H](O)[C@]1(C)O [Polymorph V] | – | – | – | converted to Polymorph II | aqueous solubility [1]: 720 µg/mL (≈ 862 µM); change on storage at 40° C. and 75% RH [2]: decreased in crystallinity
CC[C@H]1OC(=O)[C@H](C)[C@@H](O[C@H]2C[C@@](C)(OC)[C@@H](O)[C@H](C)O2)[C@H](C)[C@@H](O[C@@H]2O[C@H](C)C[C@H](N(C)C(C)C)[C@H]2O)[C@](C)(O)C[C@@H](C)[C@H](OCC(=O)NC)[C@H](C)[C@@H](O)[C@]1(C)O [Polymorph II] | changed drastically | loss of crystallinity | – | – | weight loss when kept at between 5 and 0% RH ([4]; between 5 and 0% RH): 4%; crystallinity during vacuum drying ([5]; vacuum drying at 30° C. for 72 h): loses crystallinity
CC[C@H]1OC(=O)[C@H](C)[C@@H](O[C@H]2C[C@@](C)(OC)[C@@H](O)[C@H](C)O2)[C@H](C)[C@@H](O[C@@H]2O[C@H](C)C[C@H](N(C)C)[C@H]2O)[C@](C)(O)C[C@@H](C)C(=O)[C@H](C)[C@@H](O)[C@]1(C)O [erythromycin A (1), Erythromycin A] | – | – | – | – | motilin agonist activity [6]: motilin agonist activity
CC[C@H]1OC(=O)[C@H](C)[C@@H](O[C@H]2C[C@@](C)(OC)[C@@H](O)[C@H](C)O2)[C@H](C)[C@@H](O[C@@H]2O[C@H](C)C[C@H](N(C)C(C)C)[C@H]2O)[C@](C)(O)C[C@@H](C)[C@H](OCC(=O)NC)[C@H](C)[C@@H](O)[C@]1(C)O [Polymorph VII] | changed drastically | loss of crystallinity | 3% | converted to a mixture of Polymorphs II and IV | aqueous solubility [1]: 750 µg/mL (≈ 898 µM); weight change by GVS analysis [4]: constant weight loss; change on storage at 40° C. and 75% RH [2]: lost crystallinity

The next lines start with results.

mass gain/loss upon multiple sorption and desorption cycles [4] | XRPD re-analysis under ambient conditions after GVS [4] | weight increase / mass uptake between 0 and 90% RH [4] | SMILES | polymorph change under aqueous conditions / during solubility analysis [3] | other results
changed drastically | – | – | CC[C@H]1OC(=O)[C@H](C)[C@@H](O[C@H]2C[C@@](C)(OC)[C@@H](O)[C@H](C)O2)[C@H](C)[C@@H](O[C@@H]2O[C@H](C)C[C@H](N(C)C(C)C)[C@H]2O)[C@](C)(O)C[C@@H](C)[C@H](OCC(=O)NC)[C@H](C)[C@@H](O)[C@]1(C)O [Polymorph VI] | – | change on storage at 40° C. at 75% RH ([2]; duration not stated): converted to Polymorph IV
very uniform | did not lead to a change in XRPD pattern | 3.5% | CC[C@H]1OC(=O)[C@H](C)[C@@H](O[C@H]2C[C@@](C)(OC)[C@@H](O)[C@H](C)O2)[C@H](C)[C@@H](O[C@@H]2O[C@H](C)C[C@H](N(C)C(C)C)[C@H]2O)[C@](C)(O)C[C@@H](C)[C@H](OCC(=O)NC)[C@H](C)[C@@H](O)[C@]1(C)O [Polymorph IV] | Neither storage at 40 °C at 75% R^H for 10 weeks nor handling during solubility analysis produced any significant changes | solubility ([1]; water): 770 µg/mL (≈ 922 µM); change on storage at 40° C. at 75% RH ([2]; 10 weeks): Neither storage at 40 °C at 75% R^H for 10 weeks nor handling during solubility analysis produced any significant changes; XRPD pattern on heating ([5]; heating up to the melt): no change in XRPD pattern
changed drastically | – | 8.5% | CC[C@H]1OC(=O)[C@H](C)[C@@H](O[C@H]2C[C@@](C)(OC)[C@@H](O)[C@H](C)O2)[C@H](C)[C@@H](O[C@@H]2O[C@H](C)C[C@H](N(C)C(C)C)[C@H]2O)[C@](C)(O)C[C@@H](C)[C@H](OCC(=O)NC)[C@H](C)[C@@H](O)[C@]1(C)O [Polymorph I] | converted to a second polymorph, referred to as Polymorph II | –
